The values below come from US3941795A, “α-ARYL-4-SUBSTITUTED PIPERIDINOALKANOL DERIVATIVES” (Richardson-Merrell Inc., priority 1974, dated 1976).

In this assay the test system is wheals induced by intradermal injections on 1γ of histamine. Nature of the assay: reduction by 50% of wheals induced by intradermal injections of histamine into guinea pigs (antihistamine). Type of assay: in vivo. As to conditions: Cavia porcellus, po, 1 h, orally administered one hour prior to the histamine injection, 1γ of histamine intradermal, read-out: ED50 (amount required to reduce by 50% wheals induced by intradermal injections of histamine). An excerpt: To illustrate the utility of the compounds of this invention the following tabulation indicates the amount of certain representative compounds of this invention required to reduce by 50% wheals induced by intradermal injections on 1γ of histamine into guinea pigs. Each compound was orally administered one hour prior to the histamine injection.

As for `CC(C)(C)c1ccc(C(O)CCCN2CCC(C(O)(c3ccccc3)C3CCCCC3)CC2)cc1.Cl` (stereo not drawn) [4-(α-cyclohexyl-α-hydroxybenzyl)-α-(p-tert-butylphenyl)-1-piperidinebutanol hydrochloride], the ED50 (as a rule, the dose that gives a 50% effect, or the effect in half of the subjects) was found to be 12 mg/kg.

`COc1ccccc1C(=C1CCN(CCCC(O)c2ccc(C(C)(C)C)cc2)CC1)c1ccccc1` (stereo not drawn) [4-[4-[α-(o-Anisyl)benzylidene]-α-(p-tert-butylphenyl)-1-piperidinebutanol]]: the ED50 amounted to 4.4 mg/kg.
